This note sets out measurements from patent US11718612B2, “Inhibitors of receptor interacting protein kinase I for the treatment of disease” (Board of Regents, The University of Texas System, priority 2019, dated 2023).

This experiment relates to U937 cells. Put plainly: Human U937 cellular necroptosis assay. It is filed as cell-based. To be noted: U-937; U937 cells stimulated with 25 ng/mL human TNFalpha and 25 μM z-VAD-FMK; 22 hr; Cell Titer-Glo viability. How it is done: Human U937 Cellular Necroptosis Assay
The human monocytic cell line U937 (CRL-1593.2) may be purchased from ATCC. The cells are routinely maintained in RPMI-1640 Medium (Gibco, Catalog #11875-093) supplemented with 10% heat inactivated fetal bovine serum (Gibco, Catalog #16140-071), 100 units/mL penicillin and 100 μg/mL streptomycin (Gibco, Catalog #15140-122), in a humidified incubator (37° C., 5% CO2). For the assay, cells are resuspended in RPMI-1640 phenol red free Media (Gibco, Catalog #11835-030) supplemented with 10% fetal bovine serum (Sigma, Catalog #F2442), 100 units/mL penicillin and 100 ug/mL streptomycin. […] Stock solutions of the test compounds are prepared in 100% DMSO (Sigma, Catalog #D2650) and serially diluted 1:3 using 100% DMSO. Compounds are additionally diluted 1:40 in assay medium, and 10 μL/well was transferred to the plate. Following the compound addition, the plate is incubated at 37° C. and 5% CO2 for 22 hr. After 22 hr, viability is assessed with the addition of 20 μL of Cell Titer-Glo 2.0 (Promega, Catalog #G9243). The tissue culture plate is shaken on an orbital shaker at 300 RPM for 15 minutes at room temperature in the dark. Luminescence is measured using a PerkinElmer Envision™ plate reader. IC50 values are calculated using a four-parameter logistic curve fit using Genedata Screener software.
A general note: Cellular ATP, detected with luciferase, serves as a proxy for viable cell number.

Regarding `C[C@H](c1cccc(F)c1F)n1nc2c(c1Cl)CCN(c1cccc(Cl)c1F)C2=O` (single isomer, unassigned) [Example 55a], the IC50 was more than 10000 nM.

In the case of `C[C@@H](c1cccc(F)c1F)n1nc2c(c1Cl)CCN(c1cccc(Cl)c1F)C2=O` (single isomer, unassigned) [Example 55b], half-maximal inhibition (IC50) required 6390 nM. In other words, the single-digit micromolar range.

Compound `C[C@@H](c1cccc(C#N)c1)n1cnc(C(=O)Nc2cccc(Cl)c2F)n1` (single isomer, unassigned) [Example 56b] came in with a half-maximal inhibitory concentration (IC50) of more than 10000 nM.

`O=C1c2nn(Cc3cccc(F)c3F)c(Cl)c2CCN1c1cccc(Cl)c1F` [Example 1, 3-chloro-6-(3-chloro-2-fluoro-phenyl)-2-[(2,3-difluorophenyl)methyl]-4,5-dihydropyrazolo[3,4-c]pyridin-7-one]: the concentration for half-maximal inhibition (IC50) was 34.2 nM. That is a double-digit nanomolar value.

Turning to `CC(c1cccc(F)c1F)n1nc2c(c1Cl)CCN(c1cccc(Cl)c1F)C2=O` (stereo not shown) [Example 55, 3-chloro-6-(3-chloro-2-fluorophenyl)-2-(1-(2,3-difluorophenyl)ethyl)-2,4,5,6-tetrahydro-7H-pyrazolo[3,4-c]pyridin-7-one], the IC50 was more than 10000 nM.

In turn, `CC(c1cccc(C#N)c1)n1cnc(C(=O)Nc2cccc(Cl)c2F)n1` (stereo not shown) [Example 56, N-(3-chloro-2-fluorophenyl)-1-(1-(3-cyanophenyl)ethyl)-1H-1,2,4-triazole-3-carboxamide] came in with a concentration for half-maximal inhibition (IC50) of 1510 nM.

Take `N#Cc1cccc(Cn2nc3c(c2Cl)CCN(c2cccc(Cl)c2F)C3=O)c1` [Example 58, 3-((3-Chloro-6-(3-chloro-2-fluorophenyl)-7-oxo-4,5,6,7-tetrahydro-2H-pyrazolo[3,4-c]pyridin-2-yl)methyl)benzonitrile]: the IC50 was 95.9 nM.

`N#Cc1cccc(Cn2cc3c(n2)C(=O)N(c2cccc(Cl)c2F)CC3)c1` [Example 59, 3-((6-(3-chloro-2-fluorophenyl)-7-oxo-4,5,6,7-tetrahydro-2H-pyrazolo[3,4-c]pyridin-2-yl)methyl)benzonitrile] registered a half-inhibitory concentration (IC50) of 811 nM. Compared with the last compound, the IC50 is about 8.5-fold higher.

`Nc1c2c(nn1Cc1ccccc1)C(=O)N(c1cccc(Cl)c1F)CC2` [Example 60, 3-amino-2-benzyl-6-(3-chloro-2-fluorophenyl)-2,4,5,6-tetrahydro-7H-pyrazolo[3,4-c]pyridin-7-one] displayed a half-inhibitory concentration (IC50) of 1260 nM. This IC50 lies about 1.6-fold higher than the previous one.

As for `O=C1c2nn(Cc3ccccc3)c(Br)c2CCN1c1cccc(Cl)c1F` [Example 61, 2-benzyl-3-bromo-6-(3-chloro-2-fluorophenyl)-2,4,5,6-tetrahydro-7H-pyrazolo[3,4-c]pyridin-7-one], half-maximal inhibition (IC50) was put at 44.6 nM. Against the preceding compound, the IC50 is about 28-fold lower.

`O=C1c2nn(Cc3cnccn3)c(Cl)c2CCN1c1cccc(Cl)c1F` [Example 62, 3-chloro-6-(3-chloro-2-fluorophenyl)-2-(pyrazin-2-yl-methyl)-2,4,5,6-tetrahydro-7H-pyrazolo[3,4-c]pyridin-7-one] came in with an IC50 of 53.7 nM.

In turn, `O=C1c2nn(Cc3ncccc3F)c(Cl)c2CCN1c1cccc(Cl)c1F` [Example 63, 3-chloro-6-(3-chloro-2-fluorophenyl)-2-((3-fluoropyridin-2-yl)methyl)-2,4,5,6-tetrahydro-7H-pyrazolo[3,4-c]pyridin-7-one] came in with a concentration for half-maximal inhibition (IC50) of 64.1 nM. The IC50 values of the last two compounds are within 1.5-fold of each other.

For `O=C1c2nn(Cc3ncccc3Cl)c(Cl)c2CCN1c1cccc(Cl)c1F` [Example 64, 3-chloro-6-(3-chloro-2-fluorophenyl)-2-((3-chloropyridin-2-yl)methyl)-2,4,5,6-tetrahydro-7H-pyrazolo[3,4-c]pyridin-7-one], half-maximal inhibition (IC50) was put at 130 nM.

As to `Cc1ccc(Cn2nc3c(c2Cl)CCN(c2cccc(Cl)c2F)C3=O)cc1` [Example 65, 3-chloro-6-(3-chloro-2-fluorophenyl)-2-(4-methylbenzyl)-2,4,5,6-tetrahydro-7H-pyrazolo[3,4-c]pyridin-7-one], the IC50 amounted to 207 nM.

With `O=C1c2nn(Cc3ccc(F)cc3)c(Cl)c2CCN1c1cccc(Cl)c1F` [Example 66, 3-chloro-6-(3-chloro-2-fluorophenyl)-2-(4-fluorobenzyl)-2,4,5,6-tetrahydro-7H-pyrazolo[3,4-c]pyridin-7-one], the half-inhibitory concentration (IC50) was 291 nM.

Regarding `Cc1cccc(Cn2nc3c(c2Cl)CCN(c2cccc(Cl)c2F)C3=O)c1` [Example 67, 3-chloro-6-(3-chloro-2-fluorophenyl)-2-(3-methylbenzyl)-2,4,5,6-tetrahydro-7H-pyrazolo[3,4-c]pyridin-7-one], half-maximal inhibition (IC50) required 444 nM.

Turning to `Cn1cc(Cn2nc3c(c2Cl)CCN(c2cccc(Cl)c2F)C3=O)cn1` [Example 68, 3-chloro-6-(3-chloro-2-fluorophenyl)-2-((1-methyl-1H-pyrazol-4-yl)-methyl)-2,4,5,6-tetrahydro-7H-pyrazolo[3,4-c]pyridin-7-one], the half-maximal inhibitory concentration (IC50) is 1340 nM. Against the preceding compound, the IC50 is about 3-fold higher.

Turning to `O=C1c2nn(CC3CCCOC3)c(Cl)c2CCN1c1cccc(Cl)c1F` (stereo not shown) [Example 69, 3-chloro-6-(3-chloro-2-fluorophenyl)-2-((tetrahydro-2H-pyran-3-yl)methyl)-2,4,5,6-tetrahydro-7H-pyrazolo[3,4-c]pyridin-7-one], the midpoint of inhibition, the IC50, lay at 563 nM.

In turn, `Cc1c2c(nn1Cc1ccccc1)C(=O)N(c1cccc(Cl)c1F)CC2` [Example 70, 2-benzyl-6-(3-chloro-2-fluorophenyl)-3-methyl-2,4,5,6-tetrahydro-7H-pyrazolo[3,4-c]pyridin-7-one] returned an IC50 of 233 nM.

Compound `N#Cc1c2c(nn1Cc1ccccc1)C(=O)N(c1cccc(Cl)c1F)CC2` [Example 71, 2-benzyl-6-(3-chloro-2-fluorophenyl)-7-oxo-4,5,6,7-tetrahydro-2H-pyrazolo[3,4-c]pyridine-3-carbonitrile] had an IC50 of 256 nM.

For the compound `NCc1c2c(nn1Cc1ccccc1)C(=O)N(c1cccc(Cl)c1F)CC2` [Example 72, 3-(aminomethyl)-2-benzyl-6-(3-chloro-2-fluorophenyl)-2,4,5,6-tetrahydro-7H-pyrazolo[3,4-c]pyridin-7-one], half-maximal inhibition (IC50) required 6110 nM. This IC50 lies about 24-fold higher than the previous one.

Compound `O=C1c2nn(Cc3ccccc3)c(CO)c2CCN1c1cccc(Cl)c1F` [Example 73, 2-benzyl-6-(3-chloro-2-fluorophenyl)-3-(hydroxymethyl)-2,4,5,6-tetrahydro-7H-pyrazolo[3,4-c]pyridin-7-one] showed an IC50 of 348 nM. This IC50 lies about 18-fold lower than the previous one.

On to `O=C1c2nn(Cc3ccccc3)c(C(F)F)c2CCN1c1cccc(Cl)c1F` [Example 74, 2-Benzyl-6-(3-chloro-2-fluorophenyl)-3-(difluoromethyl)-2,4,5,6-tetrahydro-7H-pyrazolo[3,4-c]pyridin-7-one], for which inhibition was half-maximal at 42 nM (IC50).

`O=C1c2nn(Cc3ncccc3F)c(Cl)c2CCN1c1cc(CO)cc(Cl)c1F` [Example 76, 3-chloro-6-(3-chloro-2-fluoro-5-(hydroxymethyl)phenyl)-2-((3-fluoropyridin-2-yl)methyl)-2,4,5,6-tetrahydro-7H-pyrazolo[3,4-c]pyridin-7-one] came in with an IC50 of 917 nM.

`O=C1c2nn(Cc3ncccc3F)cc2CCN1c1cc(CO)cc(Cl)c1F` [Example 77, 6-(3-chloro-2-fluoro-5-(hydroxymethyl)phenyl)-2-((3-fluoropyridin-2-yl)methyl)-2,4,5,6-tetrahydro-7H-pyrazolo[3,4-c]pyridin-7-one] showed an IC50 of 594 nM. This IC50 lies about 1.5-fold lower than the previous one.

`CN(C)Cc1cc(Cl)c(F)c(N2CCc3c(nn(Cc4ncccc4F)c3Cl)C2=O)c1` [Example 78, 3-chloro-6-(3-chloro-5-((dimethylamino)methyl)-2-fluorophenyl)-2-((3-fluoropyridin-2-yl)methyl)-2,4,5,6-tetrahydro-7H-pyrazolo[3,4-c]pyridin-7-one] came in with an IC50 of more than 10000 nM.

Consider `O=C1c2nn(Cc3cccc(F)c3F)c(Cl)c2CCN1c1cc(CO)cc(Cl)c1F` [Example 79, 3-chloro-6-(3-chloro-2-fluoro-5-(hydroxymethyl)phenyl)-2-(2,3-difluorobenzyl)-2,4,5,6-tetrahydro-7H-pyrazolo[3,4-c]pyridin-7-one], for which the IC50 is 346 nM.

For the compound `COCCOCc1cc(Cl)c(F)c(N2CCc3c(nn(Cc4cccc(F)c4F)c3Cl)C2=O)c1` [Example 80, 3-chloro-6-(3-chloro-2-fluoro-5-((2-methoxyethoxy)methyl)phenyl)-2-(2,3-difluorobenzyl)-2,4,5,6-tetrahydro-7H-pyrazolo[3,4-c]pyridin-7-one], the IC50 amounted to 958 nM.

Take `COCc1cc(Cl)c(F)c(N2CCc3c(nn(Cc4cccc(F)c4F)c3Cl)C2=O)c1` [Example 81, 3-chloro-6-(3-chloro-2-fluoro-5-(methoxymethyl)phenyl)-2-(2,3-difluorobenzyl)-2,4,5,6-tetrahydro-7H-pyrazolo[3,4-c]pyridin-7-one]: the IC50 is more than 10000 nM.

The compound `O=C1c2nn(Cc3cccc(F)c3F)c(Cl)c2CCN1c1cc(Cn2ccnc2)cc(Cl)c1F` [Example 82, 6-(5-((1H-imidazol-1-yl)methyl)-3-chloro-2-fluorophenyl)-3-chloro-2-(2,3-difluorobenzyl)-2,4,5,6-tetrahydro-7H-pyrazolo[3,4-c]pyridin-7-one] displayed a 50% inhibitory concentration (IC50) of 863 nM.

With `O=C1c2nn(Cc3cccc(F)c3F)c(Cl)c2CCN1c1cc(CNCC(F)(F)F)cc(Cl)c1F` [Example 83, 3-chloro-6-(3-chloro-2-fluoro-5-(((2,2,2-trifluoroethyl)amino)methyl)phenyl)-2-(2,3-difluorobenzyl)-2,4,5,6-tetrahydro-7H-pyrazolo[3,4-c]pyridin-7-one], the concentration for half-maximal inhibition (IC50) was found to be 1230 nM.

In general, IC50 refers to the concentration that inhibits the measured activity by half.
